The source of these data is patent publication US20250109151A1, “SILYL-LIPID N-ACYL L-HOMOSERINE LACTONES AS QUORUM SENSING MOLECULES” (The Regents of the University of California, priority 2022, published 2025).

For one data set, the system named is TNF-α release. The settings on record: LPS-induced model, at 30 min; cited from earlier work.
For data set [1] the following is noted: cited from earlier work.
Data set [2] addresses T1, LasR (Pseudomonas aeruginosa, UniProt P25084).
T1 construct: expressed in transfected cells; host or cells: E. coli (reporter strain)
Kind of data set: cell-based. The settings on record: for Emax: read-out: Maximum Activation (%); for designation of the sample in the LasR agonism table: words in brackets after the sample code. As for the experimental part:
15 compounds were assayed for LasR agonism using a beta-glo reporter assay in E. coli.

For data set [3], the target named is T1, LasR. Kind of data set: LasR antagonism assay. The settings on record: for Emax: read-out: Maximum Activation (%). The format is cell-based. As for the experimental part: 3 compounds were assayed for LasR antagonism.
The IC50, […], and Max Activation for each sample is reported below.

T1 sequence (P25084 whole entry): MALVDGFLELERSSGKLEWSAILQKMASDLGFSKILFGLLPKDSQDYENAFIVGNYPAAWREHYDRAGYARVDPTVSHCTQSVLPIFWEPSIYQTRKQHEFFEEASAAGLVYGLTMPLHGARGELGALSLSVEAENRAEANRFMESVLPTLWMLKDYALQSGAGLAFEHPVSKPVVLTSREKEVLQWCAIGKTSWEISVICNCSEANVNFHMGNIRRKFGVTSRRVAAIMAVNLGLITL

As for `Cc1ccc(-n2nc(C(C)(C)C)cc2NC(=O)Nc2ccc(OCCN3CCOCC3)c3ccccc23)cc1` [BIRB-796], the TNF-α suppression in the data set on TNF-α release was 41%.

By Log P is commonly meant the decadic logarithm of the partition coefficient of the neutral form, usually between octanol and water. `O=C(O)[C@@H]1CCCN1C(=O)OCC1c2ccccc2-c2ccccc21` [Fmoc-Pro]: the “Log P” value in data set [1] is 0.094.

In the case of `C[Si]1(C)CC(C(=O)O)N(C(=O)OCC2c3ccccc3-c3ccccc32)C1` (stereo not drawn) [Fmoc-Sip], the log partition coefficient (Log P) in data set [1] was 1.3.

For the compound `CCCCCCCC[Si](C)(C)CCCCC(=O)N[C@H]1CCOC1=O` [KMM 5-55-2, (S)-5-(dimethyl(octyl)silyl)-N-(2-oxotetrahydrofuran-3-yl)pentanamide], on LasR [2], the Emax came to 101%.

On to `CC[Si](CC)(CC)CCCCC(=O)N[C@H]1CCOC1=O` [KMM 5-56-2, (S)-N-(2-oxotetrahydrofuran-3-yl)-5-(triethylsilyl)pentanamide], for which the Emax on LasR [2] came out at 94.3%.

Regarding `C[Si](C)(CCCCC(=O)N[C@H]1CCOC1=O)c1ccccc1` [LSD 1-32, (S)-5-(dimethyl(phenyl)silyl)-N-(2-oxotetrahydrofuran-3-yl)pentanamide], the Emax at LasR [2] was 96.1%.

As for `CCCC[Si](C)(C)CCCCC(=O)N[C@H]1CCOC1=O` [LSD 1-34, (S)-5-(butyldimethylsilyl)-N-(2-oxotetrahydrofuran-3-yl)pentanamide], at LasR [2], the Emax is 101%.

As for `CCCC[Si](C)(C)CCCCCCC(=O)N[C@H]1CCOC1=O` [LSD 1-35, (S)-7-(butyldimethylsilyl)-N-(2-oxotetrahydrofuran-3-yl)heptanamide], the Emax at LasR [2] was 90.4%.

For the compound `CCCCCCCC[Si](C)(C)CCCCCCC(=O)N[C@H]1CCOC1=O` [LSD 1-59, (S)-7-(dimethyl(octyl)silyl)-N-(2-oxotetrahydrofuran-3-yl)heptanamide], at LasR [2], the Emax was 25% and the “designation of the sample in the LasR agonism table” value (“designation of the sample” for short) was “LSD 1-59 (inactive)”.

For `C[Si](C)(CCCCCCC(=O)N[C@H]1CCOC1=O)c1ccccc1` [LSD 2-47, (S)-7-(dimethyl(phenyl)silyl)-N-(2-oxotetrahydrofuran-3-yl)heptanamide], the Emax at LasR [2] came to 99.7%.

With `CCCC[Si](CCCC)(CCCC)CCCCC(=O)N[C@H]1CCOC1=O` [LSD 2-65, (S)-N-(2-oxotetrahydrofuran-3-yl)-5-(tributylsilyl)pentanamide], at LasR [2], the Emax amounted to 79.8%.

As for `C[Si](C)(CCCCC(=O)CC(=O)N[C@H]1CCOC1=O)c1ccccc1` [LSD 2-113, (S)-7-(dimethyl(phenyl)silyl)-3-oxo-N-(2-oxotetrahydrofuran-3-yl)heptanamide], the Emax on LasR [2] stood at 106%.

As for `C[Si](C)(C)O[Si](C)(C)CCCCC(=O)N[C@H]1CCOC1=O` [LSD 2-120, (S)-N-(2-oxotetrahydrofuran-3-yl)-5-(1,1,3,3,3-pentamethyldisiloxaneyl)pentanamide], the Emax on LasR [2] is 94%.

The EC50 is the midpoint of the concentration-response curve. Read a low EC50 as a more potent agent. Usually IC50 stands for the concentration that gives 50% inhibition. Low readings indicate higher potency, high ones lower potency. Take `C[Si](C)(c1ccccc1)c1ccc(CC(=O)N[C@H]2CCOC2=O)cc1` [LSD 133, (S)-2-(4-(dimethyl(phenyl)silyl)phenyl)-N-(2-oxotetrahydrofuran-3-yl)acetamide]: on LasR [2], the EC50 came out at 0.015 µM, the Emax turned out to be 9% and the “designation of the sample” value was “LSD 133 (antagonist)”. Further, on LasR [3], half-maximal inhibition (IC50) required 14.6 µM and the Emax worked out at 97.2%.

Take `CCCC[Si](C)(C)c1ccc(CC(=O)N[C@H]2CCOC2=O)cc1` [LSD 137, (S)-2-(4-(butyldimethylsilyl)phenyl)-N-(2-oxotetrahydrofuran-3-yl)acetamide]: on LasR [2], the Emax is 14.1% and the “designation of the sample” value was “LSD 137 (antagonist)”. Moreover, on LasR [3], 9.3 µM corresponded to half-maximal inhibition (IC50) and the Emax was 101%.

With `CC[Si](CC)(CC)CCCCC(=O)CC(=O)N[C@H]1CCOC1=O` [LSD-92, (S)-3-oxo-N-(2-oxotetrahydrofuran-3-yl)-7-(triethylsilyl)heptanamide], the Emax at LasR [2] is 86%.
